Experimental data as given in publication PMC11995724, “Antibiotic target discovery by integrated phenotypic and activity-based profiling of electrophilic fragments” (Cell chemical biology, 2025).

Experiment: in vitro
Conditions: human, hek293t cells

**Q.** With C=CCNC(=O)C(C#N)=Cc1ccc2c(c1)OCCO2 [9-L06, 2-cyano-3-(2,3-dihydro-1,4-benzodioxin-6-yl)-N-(prop-2-en-1-yl)prop-2-enamide] as the compound, how does the viability at 48 h, 25 µM read?
**A.** The viability at 48 h, 25 µM was 86.7%.

**Q.** With C=CC(=O)NC1Cc2ccccc2C1=O (centres unmarked) [1-H21, N-(1-oxo-2,3-dihydro-1H-inden-2-yl)prop-2-enamide] as the compound, how does the viability at 48 h, 25 µM read?
**A.** Its viability at 48 h, 25 µM is 156%.

**Q.** Which viability at 48 h, 25 µM does the source give for Cc1cc(S(=O)(=O)N(C)C)cc(NC(=O)CCl)c1C [4-H15, 2-chloro-N-[5-(dimethylsulfamoyl)-2,3-dimethylphenyl]acetamide] here?
**A.** The viability at 48 h, 25 µM was 1.33%.

**Q.** With CC(C)(C)c1ccc(CC(=O)CCl)cc1 [10-G19, 1-(4-tert-butylphenyl)-3-chloropropan-2-one] as the compound, how does the viability at 48 h, 25 µM read?
**A.** The viability at 48 h, 25 µM was 1.53%.

**Q.** For CCCN(Cc1ccc(C)cc1)C(=O)CCl [5-J09, 2-chloro-N-[(4-methylphenyl)methyl]-N-propylacetamide], which viability at 48 h, 25 µM is on record?
**A.** The viability at 48 h, 25 µM was 0.952%.

**Q.** Which viability at 48 h, 25 µM does the source give for C=CC(=O)N(C)[C@H]1CS(=O)(=O)C[C@@H]1O (racemic) [3-C15, rac-N-[(3R,4R)-4-hydroxy-1,1-dioxo-1lambda6-thiolan-3-yl]-N-methylprop-2-enamide] here?
**A.** The viability at 48 h, 25 µM was 46%.

**Q.** With Cc1nn(-c2ccccc2)c(C)c1CNC(=O)CCl [6-I08, 2-chloro-N-[(3,5-dimethyl-1-phenyl-1H-pyrazol-4-yl)methyl]acetamide] as the compound, how does the viability at 48 h, 25 µM read?
**A.** The viability at 48 h, 25 µM was 2.35%.

**Q.** Which viability at 48 h, 25 µM does the source give for Cc1cc(-n2c(C)cc(C=C(C#N)C(=O)NC3CCCC3)c2C)no1 [9-J15, 2-cyano-N-cyclopentyl-3-[2,5-dimethyl-1-(5-methyl-1,2-oxazol-3-yl)-1H-pyrrol-3-yl]prop-2-enamide] here?
**A.** The viability at 48 h, 25 µM was 91.8%.

**Q.** For C=CC(=O)NCc1cnc(C)n1-c1ccccc1 [2-F19, N-[(2-methyl-1-phenyl-1H-imidazol-5-yl)methyl]prop-2-enamide], which viability at 48 h, 25 µM is on record?
**A.** The viability at 48 h, 25 µM was 49%.

**Q.** With CC(C)C(NC(=O)CCl)c1ccccc1 (centres unmarked) [4-K11, 2-chloro-N-(2-methyl-1-phenylpropyl)acetamide] as the compound, how does the viability at 48 h, 25 µM read?
**A.** Its viability at 48 h, 25 µM is 3.98%.

**Q.** Which viability at 48 h, 25 µM does the source give for N#CC(=Cc1c(F)cccc1F)C(=O)Nc1ccccc1Cl [9-I20, N-(2-chlorophenyl)-2-cyano-3-(2,6-difluorophenyl)prop-2-enamide] here?
**A.** The viability at 48 h, 25 µM was 114%.

**Q.** With C=CC(=O)NCc1cn(C(F)F)c2ccccc12 [2-F11, N-{[1-(difluoromethyl)-1H-indol-3-yl]methyl}prop-2-enamide] as the compound, how does the viability at 48 h, 25 µM read?
**A.** The viability at 48 h, 25 µM was 49%.

**Q.** Which viability at 48 h, 25 µM does the source give for C=CCN(Cc1ccc(Cl)s1)C(=O)CCl [5-M05, 2-chloro-N-[(5-chlorothiophen-2-yl)methyl]-N-(prop-2-en-1-yl)acetamide] here?
**A.** Its viability at 48 h, 25 µM is 0.327%.

**Q.** With CC1=C(c2ccco2)CN(C(=O)CCl)CC1 [5-H05, 2-chloro-1-[5-(furan-2-yl)-4-methyl-1,2,3,6-tetrahydropyridin-1-yl]ethan-1-one] as the compound, how does the viability at 48 h, 25 µM read?
**A.** Its viability at 48 h, 25 µM is 69.1%.

**Q.** For C=CC(=O)N(C)Cc1c(C)nn(C)c1Cl [1-C15, N-[(5-chloro-1,3-dimethyl-1H-pyrazol-4-yl)methyl]-N-methylprop-2-enamide], which viability at 48 h, 25 µM is on record?
**A.** Its viability at 48 h, 25 µM is 86.1%.

**Q.** With CNC(=O)c1cc(OC2CCCN(C(=O)CCl)C2)ccn1 (centres unmarked) [5-P05, 4-{[1-(2-chloroacetyl)piperidin-3-yl]oxy}-N-methylpyridine-2-carboxamide] as the compound, how does the viability at 48 h, 25 µM read?
**A.** The viability at 48 h, 25 µM was 1.84%.

**Q.** For C=CC(=O)N(Cc1ccccc1)Cc1ccccc1 [1-P04, N,N-dibenzylprop-2-enamide], which viability at 48 h, 25 µM is on record?
**A.** Its viability at 48 h, 25 µM is 60.4%.

**Q.** For COc1ccc([C@H]2C[C@H](NC(=O)C(C)Cl)C2)cc1F (some centres unmarked) [6-F17, 2-chloro-N-[(1r,3r)-3-(3-fluoro-4-methoxyphenyl)cyclobutyl]propanamide], which viability at 48 h, 25 µM is on record?
**A.** Its viability at 48 h, 25 µM is 91.5%.

**Q.** Which viability at 48 h, 25 µM does the source give for CN(C)C(=O)c1cc2n(n1)CC1(CCN(C(=O)CCl)CC1)OC2 [5-K11, 1-(2-chloroacetyl)-N,N-dimethyl-4',7'-dihydrospiro[piperidine-4,6'-pyrazolo[3,2-c][1,4]oxazine]-2'-carboxamide] here?
**A.** The viability at 48 h, 25 µM was 0.714%.

**Q.** Which viability at 48 h, 25 µM does the source give for N#CC(=Cc1ccco1)C(=O)NC1CCN(c2ccc(F)cc2F)C1 (centres unmarked) [9-L09, 2-cyano-N-[1-(2,4-difluorophenyl)pyrrolidin-3-yl]-3-(furan-2-yl)prop-2-enamide] here?
**A.** Its viability at 48 h, 25 µM is 111%.
